# Experimental data from patent publication US11622991B2, “Protocol for treatment of lupus nephritis” (Aurinia Pharmaceuticals Inc., priority 2017, dated 2023).
# Tested on: lupus nephritis
# Experiment: 48 week study of LN treatment: complete and partial remission
# Format: in vivo, human
# Details: for patients showing complete remission (CR) / patients showing partial remission (PR): 24 weeks
# Procedure: The study was conducted over a period of 48 weeks and safety was evaluated at 24 weeks.
# Subjects were screened prior to admission to the study by (a) determining that the urine protein creatinine ratio (UPCR) as >1.5 mg/mg as measured by first morning void, and (b) that the eGFR as measured by Chronic Kidney Disease Epidemiology Collaboration equation (CKD-EP1) of >45 ml/min/1.73 m^2. Subjects were assessed after 24 weeks and 48 weeks as well as a subsequent evaluation at 50 weeks.
# PR is a composite end-point that includes safety and efficacy: UPCR reduction of 50% from baseline and no use of rescue medication
# [1] = high dosage 39.5 mg BID with MMF and corticosteroids
# [2] = low dosage 23.7 mg BID with MMF and corticosteroids
smiles,measurement,setting,value
C=C/C=C/C[C@@H](C)[C@@H](O)[C@H]1C(=O)N[C@@H](CC)C(=O)N(C)CC(=O)N(C)[C@@H](CC(C)C)C(=O)N[C@@H](C(C)C)C(=O)N(C)[C@@H](CC(C)C)C(=O)N[C@@H](C)C(=O)N[C@H](C)C(=O)N(C)[C@@H](CC(C)C)C(=O)N(C)[C@@H](CC(C)C)C(=O)N(C)[C@@H](C(C)C)C(=O)N1C [voclosporin],patients showing complete remission (CR),[1],27%
same,patients showing partial remission (PR),[1],66%
same,patients showing complete remission (CR),[2],32.6%
same,patients showing partial remission (PR),[2],70%
same,subjects showing complete remission (CR),"48 weeks, low dosage 23.7 mg BID with MMF and corticosteroids",49%
